Experimental findings from ChEMBL document CHEMBL5537136 (J Med Chem, 2024) are described below.

Data set [1] concerns the target T1, Protein mono-ADP-ribosyltransferase TIPARP (Homo sapiens) (UniProt Q7Z3E1).
T1 sequence (whole entry): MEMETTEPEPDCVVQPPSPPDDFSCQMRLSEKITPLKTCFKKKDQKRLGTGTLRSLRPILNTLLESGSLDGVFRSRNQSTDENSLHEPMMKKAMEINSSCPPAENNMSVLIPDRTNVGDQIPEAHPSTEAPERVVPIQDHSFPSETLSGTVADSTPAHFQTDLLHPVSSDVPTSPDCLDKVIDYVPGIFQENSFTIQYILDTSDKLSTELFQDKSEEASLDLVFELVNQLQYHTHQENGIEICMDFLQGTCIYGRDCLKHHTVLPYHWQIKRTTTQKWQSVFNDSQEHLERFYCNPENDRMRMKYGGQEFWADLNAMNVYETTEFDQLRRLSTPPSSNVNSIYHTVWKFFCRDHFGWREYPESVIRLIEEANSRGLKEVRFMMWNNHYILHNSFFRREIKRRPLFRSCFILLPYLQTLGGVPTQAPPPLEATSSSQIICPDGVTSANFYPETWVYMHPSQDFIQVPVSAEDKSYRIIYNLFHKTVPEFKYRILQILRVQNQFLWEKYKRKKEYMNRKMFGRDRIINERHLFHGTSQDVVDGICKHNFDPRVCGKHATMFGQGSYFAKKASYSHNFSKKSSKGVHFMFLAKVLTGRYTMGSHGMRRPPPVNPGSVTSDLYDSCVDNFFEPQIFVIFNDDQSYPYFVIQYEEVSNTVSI
The experiment in a line: Inhibition of PARP7 (unknown origin) at 100 nM measured after 1 hr incubation by microplate reader assay relative to control.

Data set [2] deals with CT26. In words: Antitumor activity in immunocompetent mouse CT26 cell bearing Balb/c mouse model assessed as induction of IFN-beta mRNA expression in tumor tissue at 100 mg/kg, IG treated twice a day measured after 14 days by quantitative real-time PCR analysis. Type of data set: functional, organism-based. Conditions: time 14.0 day. (In general: Quantitative PCR measures a nucleic acid by following its amplification.)

Another data set deals with Cytochrome P450 2C9 (Homo sapiens, UniProt P11712). The experiment in a line: Inhibition of CYP2C9 (unknown origin). Type of data set: ADME.
In a further data set the target is Cytochrome P450 2D6 (Homo sapiens, UniProt P10635). The experiment in a line: Inhibition of CYP2D6 (unknown origin). Type of data set: ADME.
Data set [3] in a line: Antiproliferative activity against mouse AML12 cells measured after 6 days incubation by MTT assay. Type of data set: toxicity, cell-based. In general terms: Tetrazolium assays rely on reduction of a dye to a coloured formazan, in cell work by metabolically active cells.
For a further data set, the target named is CYP3A4/5 (Homo sapiens, UniProt P08684+P20815). The experiment in a line: Inhibition of CYP3A4/5 (unknown origin). Type of data set: ADME, protein assay.
Data set [4] in a line: Oral bioavailability in ICR mouse. Type of data set: ADME, organism-based. Conditions: in vivo.
Data set [5] can be described thus: Permeability across basolateral to apical side in human Caco-2 cells. Type of data set: ADME, cell-based. For orientation: Passage across Caco-2 layers is used to estimate intestinal permeability.
The test system of data set [6] is CT26. In words: Antitumor activity in immunocompetent mouse CT26 cell bearing mouse model assessed as tumor growth inhibition at 100 mg/kg, IG treated twice a day measured after 14 days relative to control. Type of data set: functional. Conditions: CT26, po, 336 h, time 14 day, read-out: TGI.
A short description of data set [7]: Clearance in ICR mouse. Type of data set: ADME. As to conditions: in vivo.
Data set [8] in a line: Permeability across apical to basolateral side in human Caco-2 cells. Type of data set: ADME, cell-based.
The target in data set [9] is T2, Protein mono-ADP-ribosyltransferase TIPARP (Homo sapiens, UniProt Q7Z3E1).
T2 sequence (Q7Z3E1 whole entry): T1 sequence (whole entry)
In words: Inhibition of PARP7 (unknown origin) measured after 1 hr incubation by microplate reader assay.

The test system of data set [10] is CT26. In words: Antitumor activity against mouse CT26 cells implanted in immunodeficient Balb/c mouse assessed as inhibition of tumor growth at 25 mg/kg, ip qod measured after 10 days relative to control. Type of data set: functional. Conditions: CT26, 240 h, time 10 day, read-out: TGI.
Data set [11] addresses Poly [ADP-ribose] polymerase 1 (Homo sapiens, UniProt P09874). In words: Inhibition of PARP1 (unknown origin) measured after 1 hr incubation by microplate reader assay.

Structures are written as SMILES. The source made the active and inactive calls. The rule behind the calls is not given here.

Poly [ADP-ribose] polymerase 1, sequence (P09874 whole entry): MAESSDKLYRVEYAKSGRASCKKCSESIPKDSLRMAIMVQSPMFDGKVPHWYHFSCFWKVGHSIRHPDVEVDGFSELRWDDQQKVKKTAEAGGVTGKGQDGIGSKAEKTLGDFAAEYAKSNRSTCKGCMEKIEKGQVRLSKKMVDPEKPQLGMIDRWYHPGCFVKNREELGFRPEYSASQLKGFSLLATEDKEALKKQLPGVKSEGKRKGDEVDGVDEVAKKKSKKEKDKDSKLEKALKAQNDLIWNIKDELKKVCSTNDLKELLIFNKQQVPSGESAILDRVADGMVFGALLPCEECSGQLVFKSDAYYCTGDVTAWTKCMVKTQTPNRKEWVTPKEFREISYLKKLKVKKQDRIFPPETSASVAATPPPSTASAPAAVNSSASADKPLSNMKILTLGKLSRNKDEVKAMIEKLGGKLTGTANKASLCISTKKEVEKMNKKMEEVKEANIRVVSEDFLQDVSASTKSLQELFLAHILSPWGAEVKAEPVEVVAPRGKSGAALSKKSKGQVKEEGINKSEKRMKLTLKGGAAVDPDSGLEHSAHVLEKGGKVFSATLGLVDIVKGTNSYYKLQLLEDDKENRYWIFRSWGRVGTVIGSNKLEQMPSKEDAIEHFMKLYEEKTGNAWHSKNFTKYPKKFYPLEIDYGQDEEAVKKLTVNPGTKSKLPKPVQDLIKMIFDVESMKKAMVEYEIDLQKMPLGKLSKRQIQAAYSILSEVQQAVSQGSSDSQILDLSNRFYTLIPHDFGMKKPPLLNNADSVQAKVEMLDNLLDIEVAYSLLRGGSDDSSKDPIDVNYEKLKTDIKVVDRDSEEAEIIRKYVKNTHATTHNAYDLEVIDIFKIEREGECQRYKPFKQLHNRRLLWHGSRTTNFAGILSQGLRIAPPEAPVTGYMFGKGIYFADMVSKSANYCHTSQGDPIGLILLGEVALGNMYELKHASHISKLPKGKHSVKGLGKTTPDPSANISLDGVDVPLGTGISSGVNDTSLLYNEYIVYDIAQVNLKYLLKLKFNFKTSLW
Cytochrome P450 2C9, sequence (P11712 whole entry): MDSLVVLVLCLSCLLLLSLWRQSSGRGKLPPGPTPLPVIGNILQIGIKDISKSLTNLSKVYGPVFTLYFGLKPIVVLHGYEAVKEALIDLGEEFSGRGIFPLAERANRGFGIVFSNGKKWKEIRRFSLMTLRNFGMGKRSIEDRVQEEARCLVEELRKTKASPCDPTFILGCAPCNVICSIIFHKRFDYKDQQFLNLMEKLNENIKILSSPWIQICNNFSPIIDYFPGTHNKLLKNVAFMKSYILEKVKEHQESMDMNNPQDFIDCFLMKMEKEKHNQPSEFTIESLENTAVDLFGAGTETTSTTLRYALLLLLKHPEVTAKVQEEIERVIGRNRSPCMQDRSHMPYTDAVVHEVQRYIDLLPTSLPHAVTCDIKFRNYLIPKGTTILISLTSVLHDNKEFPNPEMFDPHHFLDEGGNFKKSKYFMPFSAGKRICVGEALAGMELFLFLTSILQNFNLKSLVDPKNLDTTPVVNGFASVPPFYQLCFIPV
Cytochrome P450 2D6, sequence (P10635 whole entry): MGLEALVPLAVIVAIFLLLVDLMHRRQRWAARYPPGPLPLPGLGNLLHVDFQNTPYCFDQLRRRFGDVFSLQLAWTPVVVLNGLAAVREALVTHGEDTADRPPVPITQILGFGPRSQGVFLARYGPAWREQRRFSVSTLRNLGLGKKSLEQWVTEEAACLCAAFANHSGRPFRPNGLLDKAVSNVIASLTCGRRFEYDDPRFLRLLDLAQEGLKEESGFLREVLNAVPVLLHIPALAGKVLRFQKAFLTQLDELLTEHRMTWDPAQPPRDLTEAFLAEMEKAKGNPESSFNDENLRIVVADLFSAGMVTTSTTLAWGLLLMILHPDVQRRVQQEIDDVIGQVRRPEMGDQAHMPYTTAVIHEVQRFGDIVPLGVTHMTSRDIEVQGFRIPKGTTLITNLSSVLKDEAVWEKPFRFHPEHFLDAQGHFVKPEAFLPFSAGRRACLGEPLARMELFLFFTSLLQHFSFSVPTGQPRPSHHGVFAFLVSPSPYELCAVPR

As to `CC(C(=O)N1CCN(c2ncc(S(C)(=O)=O)cn2)CC1)n1cc2cccc(C(N)=O)c2n1` (stereo not drawn), the inhibition in [1] stood at 25.6%.
`NC(=O)c1cccc2cn(CC(=O)N3CCN(c4ccc5c(c4)OC(F)(F)O5)CC3)nc12` came in with an inhibition in [1] of 17.5%.
Same read-out and setting: the figure for `NC(=O)c1cccc2cn(CCC(=O)N3CCN(c4ncc(C(F)(F)F)cn4)CC3)nc12` is 33.9%.
In turn, `COc1cnc(N2CCN(C(=O)C(C)n3cc4cccc(C(N)=O)c4n3)CC2)nc1` (stereo not drawn) gave an inhibition in data set [1] of 65.5%.
Take `C[C@@H](COCCC(=O)N1CCN(c2ncc(C(F)(F)F)cn2)CC1)Nc1cn[nH]c(=O)c1C(F)(F)F` [ATAMPARIB]: the result in the data set with CT26 [2] was inactive. Also, the IC50 at Cytochrome P450 2C9, on Cytochrome P450 2D6 and at CYP3A4/5 was over 30000 nM each time. This compound also had an IC50 at 6 days in data set [3] of over 50000 nM. The same compound registered a bioavailability in data set [4] of 25.7%. In data set [5], the Papp B→A is 24 ×10⁻⁶ cm/s. Also, the inhibition in vivo at 100 mg/kg in the data set with CT26 [6] is 4%. Further, in data set [7], the clearance is 67 mL/min/kg. Further, in [8], the Papp A→B stood at 4.1 ×10⁻⁶ cm/s.
Regarding `CCC(C(=O)N1CCN(c2ncc(C(F)(F)F)cn2)CC1)n1cc2cccc(C(N)=O)c2n1` (stereo not drawn), the inhibition in [1] turned out to be 63%.
`CC(C(=O)N1CCN(c2ncc(C#N)cn2)CC1)n1cc2cccc(C(N)=O)c2n1` (stereo not drawn) gave an inhibition in data set [1] of 71%.
Take `CC(C(=O)N1CCN(c2ccc(C(F)(F)F)cn2)CC1)n1cc2cccc(C(N)=O)c2n1` (stereo not drawn): in [1], the inhibition amounted to 91.2%. The compound also came in with an IC50 in [9] of 20 nM.
In the case of `O=c1[nH]cc(F)c(=O)[nH]1` [FLUOROURACIL], the inhibition in vivo at 25 mg/kg in the data set with CT26 [10] came out at 65%.
`CC(C(=O)N1CCN(c2ncccn2)CC1)n1cc2cccc(C(N)=O)c2n1` (stereo not drawn): the inhibition in [1] turned out to be 19.7%.
In turn, `NC(=O)c1cccc2cn(CC(=O)N3CCN(c4ncc(C(F)(F)F)cn4)CC3)nc12` gave an inhibition in data set [1] of 89%. Further, the IC50 in data set [9] is 46 nM; in data set [11] it was over 1300 nM.
In [1], `Cc1cnc(N2CCN(C(=O)C(C)n3cc4cccc(C(N)=O)c4n3)CC2)nc1` (stereo not drawn) yielded an inhibition of 79.5%. The compound further came in with an IC50 in data set [9] of 62 nM.
In the case of `CC(C(=O)N1CCN(c2ncc(Br)cn2)CC1)n1cc2cccc(C(N)=O)c2n1` (stereo not drawn), the inhibition in data set [1] was determined as 85.6%. Besides, the IC50 in data set [9] came out at 22.3 nM.
Compound `CC(C(=O)N1CCN(c2ccc3c(c2)OC(F)(F)O3)CC1)n1cc2cccc(C(N)=O)c2n1` (stereo not drawn) had an inhibition in [1] of 13%.
In [1], `NC(=O)c1cccc2cn(C(F)C(=O)N3CCN(c4ncc(C(F)(F)F)cn4)CC3)nc12` (stereo not drawn) displayed an inhibition of 63%. Besides, the IC50 in [9] stood at 122 nM.
In turn, `NC(=O)c1cccc2cn(CC(=O)N3CCN(c4ccc(C(F)(F)F)cn4)CC3)nc12` returned an inhibition in data set [1] of 68.7%. Besides, the IC50 in data set [11] was over 1300 nM.
As to `CC(C(=O)N1CCN(c2ncc(F)cn2)CC1)n1cc2cccc(C(N)=O)c2n1` (stereo not drawn), the inhibition in [1] came out at 64.5%.

For orientation: inhibition means the percentage by which the read-out fell short of the control. By IC50 is commonly meant the concentration that inhibits the measured activity by half. The bioavailability is dose-corrected exposure relative to a reference, in per cent. Higher therefore signals good availability. For orientation: Papp B→A means how fast a substance crosses the layer from the basolateral side. Broadly, the clearance is a measure of how efficiently the substance is removed, as volume per time. As usually defined, the Papp A→B is how fast a substance crosses the layer from the apical side.
